Earlier results on one compound are cited in patent US20060211721A1, “Nutraceutical formulation of a cognitive enhancement system” (priority 2005, published 2006).

The conditions of the data set: background statement.

Turning to `C/C=C1\[C@H]2C=C(C)C[C@]1(N)c1ccc(=O)[nH]c1C2` [huperzine, Huperzine A], the oral bioavailability result is listed as “high oral bioavailability” and the “penetration through the blood brain barrier” value is given as “good penetration through the blood brain barrier”.
